In ChEMBL document CHEMBL1201862, “PubChem BioAssay data set” (2004):
Calls of active or inactive are those of the source.

Key:
[1] = biological target: T1, Trace amine-associated receptor 1 (Homo sapiens, UniProt Q96RJ0); assay: Counterscreen for agonists of the human trace amine associated receptor 1 (hTAAR1): Fluorescence-based cell-based high throughput dose response assay to identify hTAAR1 agonist that also desensitize TAAR1 receptor response.; assay type: functional
T1 sequence (Q96RJ0 whole entry): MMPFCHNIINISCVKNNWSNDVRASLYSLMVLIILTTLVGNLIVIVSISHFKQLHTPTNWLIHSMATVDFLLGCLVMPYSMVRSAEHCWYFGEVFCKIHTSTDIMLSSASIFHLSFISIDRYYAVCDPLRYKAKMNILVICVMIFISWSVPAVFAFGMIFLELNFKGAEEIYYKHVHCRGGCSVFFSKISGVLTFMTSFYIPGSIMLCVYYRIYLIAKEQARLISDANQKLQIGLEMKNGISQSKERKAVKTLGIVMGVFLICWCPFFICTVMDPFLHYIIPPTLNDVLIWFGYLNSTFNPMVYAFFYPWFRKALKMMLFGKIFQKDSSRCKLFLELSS

cells [2] = assay type: functional, cell-based
cells [3] = assay type: functional, cell-based; remark: listed apart in the source
[4] = biological target: T1, Trace amine-associated receptor 1; assay: Fluorescence-based cell-based high throughput dose response assay to identify agonists of the human trace amine associated receptor 1 (TAAR1).; assay type: functional
[5] = inhibitors of clade B AD8 Env fusion, dose response, cell-based, cherry-pick (AID 652062); assay type: functional;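 also: luciferase signal from cell-cell fusion driven by HIV-1 clade B AD8 Env; potency is for inhibitors of fusion seen as a drop in luminescence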
[6] = CEM21 lymphoblast cell cytotoxicity, dose response, cytotoxicity control for viral fusion inhibitor project, CellTiter-Glo luminescence, cherry-picked (AID 652042); assay type: functional, cell-based;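 also: potency for signal decrease meaning cytotoxicity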
[7] = ZM109 Env clade C HIV-1 fusion inhibitors, dose response, HeLa effector, CEM target cells, luciferase, cherry-pick (AID 652058); assay type: functional, cell-based
INS1 = assay: beta cell apoptosis inhibitors, cytokine rescue, dose response, luminescence, retest (AID 449756); assay type: functional, cell-based; details: Rattus norvegicus;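 also: cell death triggered by IL-1 beta plus TNF-alpha plus IFN-gamma mixture; protective hits raise ATP signal compared with cytokine alone wells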
[8] = off-target signal loss in HeLa-CEM21 co-culture – HeLa F-luc CTL cells, cherry-picked, counter-screen for HIV-1 Env fusion inhibitor project, dose response (AID 652040); assay type: functional, cell-based;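 also: potency for signal decrease marking cytotoxic or nonspecific inhibition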
[9] = inhibitors of HIV Env-driven cell fusion, dose response, cherry-pick (AID 652057); assay type: functional, cell-based
[10] = growth suppression of PTEN-null colon cells, dose response, cell-based, HCT116 PTEN knockout (AID 1047); assay type: functional;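 also: HCT116 colon tumor cells with PTEN knocked out; cells exposed to compound for 60 hours before readout; potency for loss of cell viability measured by luminescence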
[11] = cytotoxicity toward NIH3T3 fibroblasts, dose response, counter-screen, cell-based, ATP luminescence, mouse fibroblasts (AID 2010); assay type: functional;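 also: cells exposed to compound for about 90 hours before reading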
[12] = growth suppression of beta-catenin-knockout colon cells, dose response, cell-based, HCT116, human colon tumor (AID 1045); assay type: functional;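 also: HCT116 colon tumor cells with beta catenin knocked out; cells exposed to compound for 60 hours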
[13] = biological target: Matrix metalloproteinase-14 (Homo sapiens, UniProt P50281); assay: Dose Response confirmation of uHTS hits for a small molecule inhibitors of MT1-MMP activation in a fluorescence assay set 1.; assay type: functional
[14] = inhibitors of intracellular T. cruzi replication, confirmation, NIH3T3 host cells, beta-gal luminescence (AID 2044); assay type: functional, cell-based;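 also: intracellular parasites grown in NIH/3T3 mouse fibroblasts as host cells; luminescent beta-galactosidase reporter signal from transgenic T. cruzi replicating inside host cells; inhibitors lower the luminescence signal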
Genome polyprotein = Genome polyprotein (dengue virus type 2, UniProt P29990); assay: Dengue-2 NS5 methyltransferase inhibitors, primary screen, biochemical, confirmation dose response (AID 588689); assay type: functional
Chain of Genome polyprotein (P29990 2492-3391 limits assumed): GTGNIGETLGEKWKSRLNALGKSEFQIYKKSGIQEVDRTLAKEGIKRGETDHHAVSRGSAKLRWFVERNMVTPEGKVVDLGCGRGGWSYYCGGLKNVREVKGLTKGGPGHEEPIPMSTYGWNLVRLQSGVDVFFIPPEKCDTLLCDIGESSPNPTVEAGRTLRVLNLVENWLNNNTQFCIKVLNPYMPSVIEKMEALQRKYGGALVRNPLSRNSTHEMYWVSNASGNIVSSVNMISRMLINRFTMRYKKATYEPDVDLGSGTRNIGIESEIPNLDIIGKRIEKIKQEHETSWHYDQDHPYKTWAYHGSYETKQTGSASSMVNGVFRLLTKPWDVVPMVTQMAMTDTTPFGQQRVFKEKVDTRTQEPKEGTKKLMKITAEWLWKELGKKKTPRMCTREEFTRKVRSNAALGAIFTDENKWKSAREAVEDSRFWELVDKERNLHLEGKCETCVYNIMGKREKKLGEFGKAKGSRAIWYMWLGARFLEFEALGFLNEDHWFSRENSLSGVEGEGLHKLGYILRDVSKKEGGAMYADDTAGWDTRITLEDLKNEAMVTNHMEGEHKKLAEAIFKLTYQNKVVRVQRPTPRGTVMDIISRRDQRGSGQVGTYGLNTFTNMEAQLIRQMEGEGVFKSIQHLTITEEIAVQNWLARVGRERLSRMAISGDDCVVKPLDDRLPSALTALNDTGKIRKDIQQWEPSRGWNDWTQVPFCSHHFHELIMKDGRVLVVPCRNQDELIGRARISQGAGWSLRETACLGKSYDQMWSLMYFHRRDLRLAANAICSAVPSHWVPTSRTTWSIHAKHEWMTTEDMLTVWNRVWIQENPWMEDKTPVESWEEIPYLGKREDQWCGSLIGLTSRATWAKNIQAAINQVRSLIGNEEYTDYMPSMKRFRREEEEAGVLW

[15] = biological target: T2, Histone-lysine N-methyltransferase NSD2 (Homo sapiens, UniProt O96028); assay type: biochemical
T2 sequence (O96028 whole entry): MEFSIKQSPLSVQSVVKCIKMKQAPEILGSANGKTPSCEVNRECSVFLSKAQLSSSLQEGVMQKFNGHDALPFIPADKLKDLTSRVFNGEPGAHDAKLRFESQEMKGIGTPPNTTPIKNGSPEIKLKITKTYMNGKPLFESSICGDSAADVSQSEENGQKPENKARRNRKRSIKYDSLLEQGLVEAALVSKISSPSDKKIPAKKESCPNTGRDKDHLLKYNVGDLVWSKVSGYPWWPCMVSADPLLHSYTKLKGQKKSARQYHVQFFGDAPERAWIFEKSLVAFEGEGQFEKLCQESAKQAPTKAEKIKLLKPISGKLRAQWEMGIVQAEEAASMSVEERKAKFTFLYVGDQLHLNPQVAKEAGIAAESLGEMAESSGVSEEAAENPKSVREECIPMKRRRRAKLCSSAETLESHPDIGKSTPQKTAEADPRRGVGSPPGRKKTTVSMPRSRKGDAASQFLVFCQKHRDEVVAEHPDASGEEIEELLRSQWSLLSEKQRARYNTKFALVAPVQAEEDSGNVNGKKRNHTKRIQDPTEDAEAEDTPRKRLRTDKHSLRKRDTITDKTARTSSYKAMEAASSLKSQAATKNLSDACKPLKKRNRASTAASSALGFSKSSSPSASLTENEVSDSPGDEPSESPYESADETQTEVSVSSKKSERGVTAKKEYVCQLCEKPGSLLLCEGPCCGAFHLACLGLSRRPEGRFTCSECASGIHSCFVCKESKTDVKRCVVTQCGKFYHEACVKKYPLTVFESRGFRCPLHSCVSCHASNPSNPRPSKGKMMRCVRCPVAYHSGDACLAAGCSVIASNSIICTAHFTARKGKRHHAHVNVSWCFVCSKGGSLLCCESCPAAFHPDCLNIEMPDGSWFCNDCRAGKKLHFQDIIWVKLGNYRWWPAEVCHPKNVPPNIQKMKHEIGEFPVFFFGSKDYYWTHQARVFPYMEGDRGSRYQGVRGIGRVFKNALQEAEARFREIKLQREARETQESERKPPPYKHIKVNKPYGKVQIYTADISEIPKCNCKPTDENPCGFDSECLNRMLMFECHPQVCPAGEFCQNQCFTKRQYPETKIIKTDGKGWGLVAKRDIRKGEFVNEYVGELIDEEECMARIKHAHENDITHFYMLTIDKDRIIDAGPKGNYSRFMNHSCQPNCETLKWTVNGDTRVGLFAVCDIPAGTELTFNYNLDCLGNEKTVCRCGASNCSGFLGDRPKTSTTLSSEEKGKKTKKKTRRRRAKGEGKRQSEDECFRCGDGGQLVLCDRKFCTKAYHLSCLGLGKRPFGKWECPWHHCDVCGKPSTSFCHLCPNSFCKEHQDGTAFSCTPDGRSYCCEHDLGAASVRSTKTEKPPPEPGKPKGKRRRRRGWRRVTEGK

[16] = biological target: 5-hydroxytryptamine receptor 2A (Mus musculus, UniProt P35363); assay type: functional, cell-based;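 also: CHO-K1 cells with tagged receptor and beta-arrestin; agonist potency measured as compound-induced activation of the receptor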
Chain of 5-hydroxytryptamine receptor 2A (P35363 whole entry): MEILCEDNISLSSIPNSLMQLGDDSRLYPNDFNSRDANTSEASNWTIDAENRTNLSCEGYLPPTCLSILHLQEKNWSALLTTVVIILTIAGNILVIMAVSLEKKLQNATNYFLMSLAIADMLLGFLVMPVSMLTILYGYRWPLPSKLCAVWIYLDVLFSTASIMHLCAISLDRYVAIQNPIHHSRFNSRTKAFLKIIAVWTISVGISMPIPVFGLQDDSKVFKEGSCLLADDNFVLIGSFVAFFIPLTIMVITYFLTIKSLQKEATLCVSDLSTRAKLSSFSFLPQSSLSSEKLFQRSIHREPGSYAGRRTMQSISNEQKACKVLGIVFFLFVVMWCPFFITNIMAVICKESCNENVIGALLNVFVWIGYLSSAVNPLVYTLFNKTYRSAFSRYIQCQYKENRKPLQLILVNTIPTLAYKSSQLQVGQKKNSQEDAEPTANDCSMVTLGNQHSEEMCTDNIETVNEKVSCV

Vero [17] = assay: Vero cell cytotoxicity, cytotoxicity control for flavivirus capping enzyme inhibitors (AID 588742); assay type: functional; details: Chlorocebus sabaeus
[18] = biological target: T3, Mannose-6-phosphate isomerase (Homo sapiens, UniProt P34949); assay: human PMI inhibitors, high substrate, primary screen, biochemical, fluorescence intensity, high mannose 6-phosphate (AID 1220)
T3 sequence (P34949 whole entry): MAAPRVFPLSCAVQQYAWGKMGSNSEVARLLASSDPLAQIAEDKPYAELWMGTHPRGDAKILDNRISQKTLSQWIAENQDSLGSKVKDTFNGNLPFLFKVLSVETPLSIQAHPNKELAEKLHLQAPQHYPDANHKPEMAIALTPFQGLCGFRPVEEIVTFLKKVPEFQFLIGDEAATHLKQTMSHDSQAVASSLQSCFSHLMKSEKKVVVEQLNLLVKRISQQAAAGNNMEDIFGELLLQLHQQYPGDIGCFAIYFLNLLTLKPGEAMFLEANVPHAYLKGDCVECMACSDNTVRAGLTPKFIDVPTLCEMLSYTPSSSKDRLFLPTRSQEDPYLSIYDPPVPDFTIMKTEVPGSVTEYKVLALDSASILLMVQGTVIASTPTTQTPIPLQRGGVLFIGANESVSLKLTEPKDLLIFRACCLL

Mu-type opioid receptor = Mu-type opioid receptor (Homo sapiens, UniProt P35372); assay type: functional, cell-based;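 also: U2OS cells with beta-arrestin recruitment to OPRM1 by beta-gal complementation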
Chain of Mu-type opioid receptor (P35372 whole entry): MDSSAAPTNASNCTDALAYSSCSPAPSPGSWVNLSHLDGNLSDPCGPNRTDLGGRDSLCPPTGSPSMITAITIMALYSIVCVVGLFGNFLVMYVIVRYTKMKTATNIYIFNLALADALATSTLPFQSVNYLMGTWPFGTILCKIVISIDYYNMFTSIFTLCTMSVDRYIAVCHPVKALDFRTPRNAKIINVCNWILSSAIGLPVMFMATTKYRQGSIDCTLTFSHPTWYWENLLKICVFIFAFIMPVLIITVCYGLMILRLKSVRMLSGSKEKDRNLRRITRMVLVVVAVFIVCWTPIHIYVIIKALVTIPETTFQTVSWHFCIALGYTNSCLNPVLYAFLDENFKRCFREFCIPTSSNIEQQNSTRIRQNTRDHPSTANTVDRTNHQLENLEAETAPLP

[19] = biological target: Eukaryotic translation initiation factor 4E (Mus musculus, UniProt P63073); assay: eIF4E–eIF4G protein interaction inhibitors, dose response, biochemical, TR-FRET (AID 855); assay type: functional;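 also: potency for disrupting eIF4E binding to eIF4GI seen as loss of FRET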
Chain of Eukaryotic translation initiation factor 4E (P63073 whole entry): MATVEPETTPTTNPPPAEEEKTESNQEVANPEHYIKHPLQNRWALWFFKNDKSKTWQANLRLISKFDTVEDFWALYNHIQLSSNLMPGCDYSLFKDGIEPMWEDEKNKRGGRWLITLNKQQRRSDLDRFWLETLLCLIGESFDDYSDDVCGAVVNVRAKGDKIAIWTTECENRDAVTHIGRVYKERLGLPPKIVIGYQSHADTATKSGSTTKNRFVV

[20] = biological target: Induced myeloid leukemia cell differentiation protein Mcl-1 (Homo sapiens, UniProt Q07820); assay type: functional
Chain of Induced myeloid leukemia cell differentiation protein Mcl-1 (Q07820 whole entry): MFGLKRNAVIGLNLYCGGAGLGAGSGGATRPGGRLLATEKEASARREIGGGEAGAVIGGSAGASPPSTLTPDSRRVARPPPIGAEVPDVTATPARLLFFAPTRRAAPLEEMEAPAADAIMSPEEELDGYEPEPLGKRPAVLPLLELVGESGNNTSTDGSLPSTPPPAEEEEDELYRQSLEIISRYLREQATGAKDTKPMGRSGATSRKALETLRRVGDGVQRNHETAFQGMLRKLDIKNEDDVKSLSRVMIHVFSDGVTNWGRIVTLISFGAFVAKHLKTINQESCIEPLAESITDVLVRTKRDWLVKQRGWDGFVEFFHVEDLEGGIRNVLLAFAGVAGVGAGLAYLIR

[21] = biological target: SWI/SNF-related matrix-associated actin-dependent regulator of chromatin subfamily A member 2 (Homo sapiens, UniProt P51531); assay: Luminescence-based cell-based high throughput dose response assay to identify activators of the function of SWI/SNF related, matrix associated, actin dependent regulator of chromatin, subfamily a, member 2 (SMARCA2, BRM).; assay type: functional
Chain of SWI/SNF-related matrix-associated actin-dependent regulator of chromatin subfamily A member 2 (P51531 whole entry): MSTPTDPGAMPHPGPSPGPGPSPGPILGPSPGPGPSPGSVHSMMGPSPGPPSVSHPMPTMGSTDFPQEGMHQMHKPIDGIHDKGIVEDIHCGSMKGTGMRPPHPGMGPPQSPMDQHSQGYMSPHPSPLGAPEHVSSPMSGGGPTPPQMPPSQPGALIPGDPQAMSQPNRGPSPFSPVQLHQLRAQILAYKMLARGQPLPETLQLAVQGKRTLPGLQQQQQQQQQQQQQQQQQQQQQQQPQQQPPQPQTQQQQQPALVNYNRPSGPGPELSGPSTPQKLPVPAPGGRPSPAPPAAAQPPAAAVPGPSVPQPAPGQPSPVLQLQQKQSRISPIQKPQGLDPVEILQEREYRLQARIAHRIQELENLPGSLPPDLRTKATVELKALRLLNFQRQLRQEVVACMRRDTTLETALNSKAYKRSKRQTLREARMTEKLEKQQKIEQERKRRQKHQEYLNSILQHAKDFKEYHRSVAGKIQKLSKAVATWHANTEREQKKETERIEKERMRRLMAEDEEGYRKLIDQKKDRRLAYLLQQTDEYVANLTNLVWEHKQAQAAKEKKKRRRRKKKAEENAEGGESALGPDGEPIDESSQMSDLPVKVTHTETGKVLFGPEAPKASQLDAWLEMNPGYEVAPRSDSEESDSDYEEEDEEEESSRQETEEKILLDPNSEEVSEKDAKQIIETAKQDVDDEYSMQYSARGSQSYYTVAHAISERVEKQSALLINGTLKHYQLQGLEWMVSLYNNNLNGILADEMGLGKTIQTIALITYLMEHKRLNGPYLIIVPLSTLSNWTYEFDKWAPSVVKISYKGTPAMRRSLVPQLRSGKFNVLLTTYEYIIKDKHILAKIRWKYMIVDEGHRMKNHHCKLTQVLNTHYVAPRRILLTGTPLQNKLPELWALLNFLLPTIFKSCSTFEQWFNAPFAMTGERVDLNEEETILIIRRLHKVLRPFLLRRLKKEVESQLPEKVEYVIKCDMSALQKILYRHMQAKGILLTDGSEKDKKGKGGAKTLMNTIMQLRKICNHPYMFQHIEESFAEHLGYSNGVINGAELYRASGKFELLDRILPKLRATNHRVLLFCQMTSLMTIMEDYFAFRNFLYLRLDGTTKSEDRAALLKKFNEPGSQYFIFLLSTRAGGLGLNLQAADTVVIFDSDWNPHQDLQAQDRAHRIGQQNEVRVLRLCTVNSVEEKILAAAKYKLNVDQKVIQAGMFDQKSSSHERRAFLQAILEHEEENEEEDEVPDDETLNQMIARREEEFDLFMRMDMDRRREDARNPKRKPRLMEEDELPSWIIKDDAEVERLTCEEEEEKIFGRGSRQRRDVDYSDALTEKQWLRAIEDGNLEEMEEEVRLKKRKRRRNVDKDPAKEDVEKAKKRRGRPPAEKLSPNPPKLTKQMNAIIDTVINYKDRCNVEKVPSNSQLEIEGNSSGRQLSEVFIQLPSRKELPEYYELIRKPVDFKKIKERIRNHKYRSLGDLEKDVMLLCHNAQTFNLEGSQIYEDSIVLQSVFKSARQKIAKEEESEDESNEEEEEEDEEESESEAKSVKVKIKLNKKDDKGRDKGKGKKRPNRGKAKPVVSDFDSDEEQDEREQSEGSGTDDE

Vero [22] = assay: cells; assay type: functional; details: Chlorocebus sabaeus
[23] = Counterscreen for activators of the function of SWI/SNF related, matrix associated, actin dependent regulator of chromatin, subfamily a, member 2 (SMARCA2, BRM): Luminescence-based cell-based high throughput dose response assay to identify non-selective compounds using the VP16 reporter assay.; assay type: functional

Cc1ccccc1-n1c(=O)cc(N2CCc3ccccc3C2)[nH]c1=O
IC50 [1]: 7.07 µM (active) | EC50 (cells [2]): > 29.9 µM (inactive) | IC50 (cells [3]): > 29.9 µM (inactive) | EC50 [4]: 2.59 µM (active)

S=C(NCCCN1CCOCC1)N1CCN(c2nc(-c3ccc(Cl)cc3)cs2)CC1
AC50 [5]: 7.13 µM (active) | AC50 [6]: 19.9 µM (active) | AC50 [7]: 0.888 µM (active) | AC50 (INS1): 11.2 µM (active) | AC50 [8]: 25.9 µM (active) | AC50 [9]: 31 µM (active)

Nc1nc(-c2ccc(Cl)cc2)c(N=Nc2ccc(S(=O)(=O)N3CCOCC3)cc2)s1
EC50 [10]: 16.5 µM (active) | EC50 [11]: > 60 µM (inconclusive) | EC50 [12]: 17.4 µM (active) | IC50 [13]: 27.7 µM (inactive) | EC50 [14]: 1.96 µM (active)

COCC/N=c1\scc(-c2ccco2)n1/N=C/c1ccc(O)c(O)c1O
IC50 (Genome polyprotein): > 100 µM (active) | AC50 [15]: 1.16 µM (active) | EC50 [16]: 11.6 µM (inactive) | CC50 (Vero [17]): 38.6 µM (active) | IC50 [18]: 32 µM (active) | EC50 (Mu-type opioid receptor): 92.5 µM (inactive) | IC50 [19]: 36 µM (inactive) | IC50 [20]: 1.6 µM (active)

COc1ccc(COC(=O)C2=C(C)NC(=O)NC2c2ccc(OC)cc2)cc1 (stereo not given)
AC50 [5]: 33.4 µM (active) | AC50 [6]: 60.3 µM (active) | AC50 [8]: 47.3 µM (active) | AC50 [9]: 21.6 µM (active)

O=C(/C=C/c1ccc(O)cc1)c1ccc(O)cc1O [ISOLIQUIRITIGENIN]
EC50 [21]: > 91.1 µM (inactive) | CC50 (Vero [22]): > 25 µM (active) | EC50 [23]: > 91.1 µM (inactive)
